Laboratory results: PubChem BioAssay AID179 (DTP/NCI, 2004)
Several values for one entry are separate records, joined by “and”; a condition that tells them apart may be missing. Equal entries are not always repeated. Activity calls are given as the source filed them.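 Rule for the calls: active = compounds giving half or more protection of infected cells from virus-caused growth loss, again on retest; inactive = the rest.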 Where a SMILES comes first, the peptide text is derived from it. The star is where a group is joined. Cbz = O=C(OCc1ccccc1)*; Boc = CC(C)(C)OC(=O)*; OSu = O=C1CCC(=O)N1O*; Bn = c1ccc(C*)cc1

Tested on: CEM cells HIV-1 protection, formazan growth assay
Assay: NCI AIDS Antiviral Assay
Settings: for IC50: measured here: growth of uninfected CEM cells
Outline: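 Protection of CEM cells against HIV-1 measured as cell growth via soluble formazan read-out, with five concentrations tested on both infected and uninfected cells; failure to protect may reflect toxicity.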

SMILES	EC50 [µM]	IC50	outcome
O=C(c1cc2c(C(F)(F)F)onc2c2ccccc12)C(F)(F)F	> 107	8.32 µM	–
CCO[C@@H]1C2C=CC(C2)[C@H]1[N+](=O)[O-] (some centres undefined)	> 141	> 141 µM	–
CC(C)=CCC[C@@H](C)C1=C(O)C(c2c(I)c(=O)n(C)c(=O)n2C)=C(C)C(=O)C1=O	> 200	112 µM	–
O=C(OC1CCCC1)C1(O)CCCCC1	> 200	> 200 µM	–
COc1ccc(CCNC(=O)[C@H]2CCCC[C@@H]2CCO)cc1OC	> 200	> 200 µM	–
Cc1ccc(C(=O)c2ccccc2C(=O)O)cc1C	> 200	> 200 µM	–
Cc1cn(C2CC(NC(=O)N(C)O)C(CO)O2)c(=O)[nH]c1=O (centres undefined)	> 200	> 200 µM	–
O=S(O)CCCSSSCCCS(=O)O	–	–	inactive
O=S(=O)(c1ccc(NC2=NC(c3ccc(O)cc3)(c3ccccc3O)c3ccccc32)cc1)c1ccc(NC2=NC(c3ccc(O)cc3)(c3ccccc3O)c3ccccc32)cc1 (centres undefined)	> 200	3.47 µM	–
O=C1N[C@H]2c3c(Cl)sc(Cl)c3/C(=N/O)[C@H]2O1	> 200	95.5 µM	–
CC1(C)C2CCC3(OCCO3)C1C(O)C2 (centres undefined)	> 427	> 427 µM	–
CC(=O)NNC(=S)/N=C/C(C(=O)Nc1ccc(Cl)cc1)=C(\C)O	–	–	inactive
CCOC1Oc2ccccc2-c2nc(C)c(C#N)cc21 (centres undefined)	> 83.2	> 83.2 µM	–
CNN1C(=O)c2c(N)c(C#N)c(-c3ccccc3)c(-c3ccccc3)c2C1=O	16.2	174 µM	–
O=c1c(Cl)c2cc3c(cc2c2ccccc12)nc1cccnc1n3C1CCCCC1	> 39.8	> 39.8 µM	–
O=C1c2ccccc2C(=O)C1(Cl)C1(S(=O)(=O)O)c2ccccc2-c2ccccc21	–	–	inactive
C/C=C1/CN2CCC34C5=CC(=O)C(c6cc7c(cc6OC)N(C)C6=C(C(=O)OC)CC8(CC)CCCN9CCC67C98)=CC5=NC23CCC1C4C(=O)OC (centres undefined)	> 200	4.9 µM	–
COc1ccc(CCN(C)C(=O)CC(C#N)(c2ccccc2)c2ccc(OC)c(OC)c2)cc1OC (centres undefined)	> 200	95.5 µM	–
CC(/C=N/N(C)C1=NCCCN1)=N/N(C)C1=NCCCN1	> 200	> 200 µM	–
C=C(C)C(OC(C)=O)C(OCC)c1c(OC)ccc2ccc(=O)oc12 (centres undefined)	> 50.1	> 50.1 µM	–
COc1cc(C)c(O)c(C[P+](c2ccccc2)(c2ccccc2)c2ccccc2)c1	> 200	11.7 µM	–
CCNC1C2(CCCCC2)NC(=O)C12CCCCC2 (centres undefined)	–	–	inactive
COc1ccc(N(C)Sc2ccccc2)cc1	> 200	38 µM	–
O=C(CSc1nnc(CSc2ccc(Cl)cc2)n1-c1ccccc1)NC(=O)Nc1ccccc1	> 182	115 µM	–
Brc1nc2c3ccccc3ncn2c1Br	> 30.2	14.8 µM	–
C/C(=N\NC(N)=O)c1ccccc1	–	–	inactive
NCCCCC(=O)NC(CCCCNC(=O)OCc1ccccc1)C(=O)NCCCCC(=O)NC(CCCCNC(=O)OCc1ccccc1)C(=O)NCCCCC(=O)NC(CCCCNC(=O)OCc1ccccc1)C(=O)NCCCCC(=O)NC(CCCCNC(=O)OCc1ccccc1)C(=O)NCCCCC(=O)NC(CCCCNC(=O)OCc1ccccc1)C(=O)NCCCCC(=O)NC(CCCCNC(=O)OCc1ccccc1)C(=O)NCCCCC(=O)NC(CCCCNC(=O)OCc1ccccc1)C(=O)O (centres undefined)	> 7.08	> 7.08 µM	–

SMILES	EC50 [µM]	IC50	outcome
S=C(Nc1ccc2c3c(cccc13)CC2)Nc1ccc2c3c(cccc13)CC2	> 200	42.7 µM	–
COC(=O)C(Cc1ccccc1)NC(=O)C(CNC(=O)OCc1ccccc1)C(=O)OCc1ccccc1 (centres undefined)	> 200	> 200 µM and 148 µM	–
O=c1oc2ccccc2c(O)c1/C=N/C(=S)NCc1ccccc1	> 200	> 200 µM	–
CCOC(=O)Cc1ccc(-c2cn3c(n2)sc2ccccc23)cc1	> 200	> 200 µM	–
OCCNC(=S)SSC(=S)NCCO	–	–	inactive
CN(C)C(=O)ON=C1c2ccccc2-c2ccccc21	> 200	28.8 µM	–
CC(C)=C[C@@H]1C[C@H](n2cc(C)c(=O)[nH]c2=O)ON1CCO	> 200	> 200 µM	–
CCOP(=O)(OCC)C(c1ccccc1)N(C(=O)NC(F)(F)F)c1cccc(F)c1 (centres undefined)	> 200	95.5 µM	–
O=C(/C=C/c1ccc([N+](=O)[O-])cc1)c1ccc(NCc2nc3ccccc3[nH]2)cc1	> 13.2	> 13.2 µM	–
O=C(c1ccccc1)c1ccc(C(c2c(O)c3ccccc3oc2=O)c2c(O)c3ccccc3oc2=O)cc1	> 200	34.7 µM	–
Cc1cc(C)nc(NS(=O)(=O)c2ccc(NC(=O)c3cccc4cc5ccccc5nc34)cc2)n1	> 91.2	3.8 µM	–
C[N+]1=C(c2ccc[n+](C)c2/C=N/O)OCC1(C)C	> 501	> 501 µM	–
Nc1ccc(C(=O)NN2C(=O)C(Cl)C2c2cccc(O)c2)cc1 (centres undefined)	> 200	9.55 µM	–
O=C1CS(=O)(=O)C(c2ccc(F)cc2)N1N1C(=O)CS(=O)(=O)C1c1ccc(F)cc1 (centres undefined)	> 200	> 200 µM	–
CCOC(=O)[C@H]1CSC[C@@H](C(=O)OC)N1	> 562	> 562 µM	–
COC(=O)NC1(NC(=O)OC)NC(=O)c2cc(OC)c(OC)c(OC)c2N1	> 200	10 µM	–
N#CC(=C(c1ccccc1)c1ccccc1)c1ccccc1	> 151	> 151 µM	–
CC(C)(C)OC(=O)NC(Cc1ccc(OCc2ccccc2)cc1)C(=O)NC(CCCCNC(=O)OCc1ccccc1)C(=O)NC(CCCCNC(=O)OCc1ccccc1)C(=O)ON1C(=O)CCC1=O (centres undefined) (Boc-Tyr(Bn)-Lys(Cbz)-Lys(Cbz)-OSu; configuration not given here)	> 100	46.8 µM	–
O=C1/C(=C/c2ccc(Cl)cc2)Sc2scc(-c3cccc([N+](=O)[O-])c3)[n+]21	> 200	1.38 µM	–
CCOC(=O)N1CCC2(CC1)C[C@@](C(C)=O)(c1ccccc1)C(C)O2 (some centres undefined)	> 200	> 200 µM	–
Cc1occc1C(=S)Nc1ccc(Cl)c(/C=N/OC(C)(C)C)c1	0.195	14.8 µM	–
O=C1CCc2ccccc2O1	> 1700	1410 µM	–
N#Cc1ccc([N+](=O)[O-])cc1NC(N)=S	> 224	> 224 µM	–
Cc1cc2[n-]c1/C=c1\[n-]/c(c(CCC(=O)O)c1C)=C\c1[n-]c(c(C)c1CCC(=O)O)/C=c1/cc(C)/c([n-]1)=C/2.[Ni]	> 9.12	–	–
Cc1ccc(-c2c(C#N)c(-c3ccc(Cl)cc3)c(C#N)c(=O)n2NS(=O)(=O)c2ccc(C)cc2)cc1	> 200	20.9 µM	–
CC(C)(C)OC(=O)NC(Cc1ccc(OCc2ccccc2)cc1)C(=O)NC(CCCCNC(=O)OCc1ccccc1)C(=O)ON1C(=O)CCC1=O (centres undefined) (Boc-Tyr(Bn)-Lys(Cbz)-OSu; configuration not given here)	> 200	36.3 µM	–
CC(=O)OCC1OC(n2ncc(=O)[nH]c2=O)C(OC(C)=O)C1OC(C)=O (centres undefined)	> 2	1.05 µM	–

SMILES	EC50 [µM]	IC50	outcome
COc1ccc(S(=O)(=O)N/N=C/CN2C(=O)c3ccccc3C2=O)cc1	> 135	> 135 µM	–
COc1cccc(C=C2N=C(c3ccccc3)N(n3c(-c4ccccc4)nc4ccccc4c3=O)C2=O)c1	> 200	37.2 µM	–
C[C@H]1CC[C@@]2(OC1)O[C@H]1C[C@H]3[C@@H]4CC[C@@H]5C[C@@H](OC6OC(CO)C(O)C(O)C6OC6OC(CO)C(O)C(O)C6O)CC[C@]5(C)[C@H]4CC[C@]3(C)[C@H]1[C@@H]2C (some centres undefined)	> 200	5.25 µM	–
O=c1[nH]nc2c3n[nH]c(=O)n3c3ccccc3n12	> 14.8	> 14.8 µM	–
CCCCCCCCCCCCCCCCCCOCC(O)COP(=O)(O)OCC1OC(n2cc(C)c(=O)[nH]c2=O)CC1N=[N+]=[N-] (centres undefined)	> 100	31.6 µM	–
CC(=O)c1cccc(C(C)=O)c1N=Cc1ccc(O)cc1	–	–	inactive
O=C1C(OC(=O)c2ccccc2)=C(c2ccc(O)cc2)C(=O)C(OC(=O)c2ccccc2)=C1c1ccc(O)cc1	> 39.8	> 39.8 µM	–
O=S(=O)(CCCCl)SCCCCl	> 145	20 µM	–
O=C1c2ccccc2C(c2ccccc2)C1c1ccccc1 (centres undefined)	> 200	19.5 µM	–
NC(=O)C1CCCN1C(=O)C(N)Cc1ccccc1 (stereo not drawn) (H-Phe-Pro-NH2; configuration not given here)	> 200	> 200 µM	–
O=C1CCCC[C@H]1[C@H]1CCC[C@@H]([C@H]2CCCCC2=O)C1=O	> 871	398 µM	–
COC(=O)C(C)Oc1ccc(O)cc1 (centres undefined)	> 1260	> 1260 µM	–
COc1cccc(/C=C2\S/C(=N/Nc3nc(C)c(C)s3)NC2=O)c1O	> 200	129 µM	–
CCOC(=O)C(=O)C1C(=O)Nc2ccccc21 (centres undefined)	> 398	204 µM	–
Cc1cc(=O)oc2c(O)c(O)ccc12	> 263	141 µM	–
CCSC1=N/C(=C\c2ccco2)C(NN)=N1	> 50.1	> 50.1 µM	–
O=C(OCc1ccccc1)C1CCN1C(c1ccccc1)c1ccccc1 (centres undefined)	> 100	> 100 µM	–
CC1CCC/C1=C(/I)C(=O)c1ccccc1 (centres undefined)	> 200	58.9 µM	–
C[C@]12CCNC(=O)C=C1CC[C@@H]1C2CC[C@@]2(C)C1CC[C@@H]2O (some centres undefined)	–	–	inactive
COC(=O)C1C=NNC1C(=O)OC (centres undefined)	–	–	inactive
COc1ccc(OC)c(NCC(=O)Nn2cnc3ccc(S(=O)(=O)Nc4cc(OC)ccc4OC)cc3c2=O)c1	> 200	33.9 µM	–
Cc1cc(CC(=O)NCCO)n(CCO)c(=O)c1	> 977	> 977 µM	–
CN1CCN(Cc2nc3cccc4c3c([n+]2[O-])-c2ccccc2-4)CC1	–	–	inactive
O=C1c2c(O)ccc([N+](=O)[O-])c2C(=O)c2c(O)ccc(Nc3cccc(CO)c3)c21	> 200	0.724 µM	–
Nc1ncnc2c1ncn2C1OC(COP(=O)(O)CP(=O)(O)O)C(O)C1O (centres undefined)	> 200	> 200 µM	–
CC1=C(C)C2(C#N)C(=O)N3C(=NC(c4ccccc4)NC3c3ccccc3)C2(C#N)C(c2ccccc2)N1 (centres undefined)	> 100	> 100 µM	–
